What was measured:
Type in all cases: in vivo
[1] = system: bermudagrass (Cynodon dactylon); assay: Test B pre-/postemergence plant response
Summary of the method: (§1)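 Seeds were sown and sprayed preemergence, while plants at 2 to 18 cm (1- to 4-leaf stage) got postemergence sprays. Compounds were formulated in a non-phytotoxic solvent mixture with surfactant. After 13 to 15 days in a greenhouse, injury was rated visually against untreated controls, 0 (no effect) to 100 (complete control).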

[2] = system: cocklebur (Xanthium strumarium); assay: Test B pre-/postemergence plant response
Summary of the method: as §1

[3] = system: common (oilseed) sunflower (Helianthus annuus); assay: Test B pre-/postemergence plant response; conditions: Preemergence
Summary of the method: as §1

[4] = system: common ragweed (Ambrosia elation); assay: Test B pre-/postemergence plant response
Summary of the method: as §1

[5] = system: corn (Zea mays); assay: Test B pre-/postemergence plant response
Summary of the method: as §1

[6] = system: goosegrass (Eleusine indica); assay: Test B pre-/postemergence plant response
Summary of the method: as §1

[7] = system: kochia (Kochia scoparia); assay: Test B pre-/postemergence plant response
Summary of the method: as §1

[8] = system: lambsquarters (Chenopodium album); assay: Test B pre-/postemergence plant response
Summary of the method: as §1

[9] = system: large crabgrass (Digitaria sanguinalis); assay: Test B pre-/postemergence plant response
Summary of the method: as §1

[10] = system: soybean (Glycine max); assay: Test B pre-/postemergence plant response
Summary of the method: as §1

[11] = system: surinam grass (Brachiaria decumbens); assay: Test B pre-/postemergence plant response
Summary of the method: as §1

[12] = system: wheat (Triticum aestivum); assay: Test B pre-/postemergence plant response
Summary of the method: as §1

[13] = system: ducksalad (Heteranthera limosa); assay: Test B flooded paddy test plant response
Summary of the method: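 Step one: raise plants to 2 leaves. Step two: flood pots 3 cm over the soil and apply compound into the water, keeping this depth. Step three: after 13–15 greenhouse days, score visually versus controls, 0–100, where 100 means complete control.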

[14] = Postemergence, 31 g ai/ha, scale 0 to 100, 0 no effect, 100 complete control
[15] = Postemergence, 62 g ai/ha, scale 0 to 100
[16] = Postemergence, 125 g ai/ha, scale 0 to 100
[17] = Postemergence, 250 g ai/ha, scale 0 to 100
[18] = Preemergence, 31 g ai/ha, 0 to 100 scale, 0 no effect, 100 complete control
[19] = Preemergence, 62 g ai/ha, scale 0 to 100
[20] = Preemergence, 125 g ai/ha, scale 0 to 100
[21] = Preemergence, 250 g ai/ha, scale 0 to 100

What does the source list for “5-[3-(4-chlorophenyl)-5-methyl-1H-pyrazol-1-yl]-1,6-dihydro-1-methyl-6-oxo-4-pyridazinyl-1-methylethyl carbonate [Compound 7]”?
Bermudagrass plant response rating ([1]; 250 g ai/ha, preemergence, 0-100 scale): 100; Plant response rating, Bermudagrass [1, 14]: 100; Plant response rating, Bermudagrass [1, 15]: 100; Plant response rating, Bermudagrass [1, 16]: 100; Plant response rating, Bermudagrass [1, 17]: 100; Plant response rating, Bermudagrass [1, 18]: 60; Plant response rating, Bermudagrass [1, 19]: 90; Plant response rating, Bermudagrass [1, 20]: 90; Plant response rating, Cocklebur [2, 14]: 0; Plant response rating, Cocklebur [2, 15]: 0; Plant response rating, Cocklebur [2, 16]: 0; Plant response rating, Cocklebur [2, 17]: 0; Plant response rating, Cocklebur [2, 18]: 0; Plant response rating, Cocklebur [2, 19]: 0; Plant response rating, Cocklebur [2, 20]: 0; Plant response rating, Cocklebur [2, 21]: 0; Plant response rating, Sunflower ([3]; 31 g ai/ha, 0 to 100 scale, 0 no effect, 100 complete control): 0; Plant response rating, Sunflower ([3]; 62 g ai/ha, scale 0 to 100): 0; Plant response rating, Sunflower ([3]; 125 g ai/ha, scale 0 to 100): 0; Plant response rating, Sunflower ([3]; 250 g ai/ha, scale 0 to 100): 0; Plant response rating, Ragweed [4, 14]: 0; Plant response rating, Ragweed [4, 15]: 0; Plant response rating, Ragweed [4, 16]: 0; Plant response rating, Ragweed [4, 17]: 0; Plant response rating, Ragweed [4, 18]: 0; Plant response rating, Ragweed [4, 19]: 0; Plant response rating, Ragweed [4, 20]: 0; Plant response rating, Ragweed [4, 21]: 20; Plant response rating, Corn [5, 14]: 90; Plant response rating, Corn [5, 15]: 90; Plant response rating, Corn [5, 16]: 90; Plant response rating, Corn [5, 17]: 90; Plant response rating, Corn [5, 18]: 90; Plant response rating, Corn [5, 19]: 95; Plant response rating, Corn [5, 20]: 98; Plant response rating, Corn [5, 21]: 100; Plant response rating, Goosegrass [6, 14]: 95; Plant response rating, Goosegrass [6, 15]: 100; Plant response rating, Goosegrass [6, 16]: 100; Plant response rating, Goosegrass [6, 17]: 100; Plant response rating, Goosegrass [6, 18]: 85; Plant response rating, Goosegrass [6, 19]: 90; Plant response rating, Goosegrass [6, 20]: 100; Plant response rating, Goosegrass [6, 21]: 100; Plant response rating, Kochia [7, 14]: 0; Plant response rating, Kochia [7, 15]: 0; Plant response rating, Kochia [7, 16]: 0; Plant response rating, Kochia [7, 17]: 10; Plant response rating, Kochia [7, 18]: 0; Plant response rating, Kochia [7, 19]: 0; Plant response rating, Kochia [7, 20]: 0; Plant response rating, Kochia [7, 21]: 0; Plant response rating, Lambsquarters [8, 14]: 0; Plant response rating, Lambsquarters [8, 15]: 0; Plant response rating, Lambsquarters [8, 16]: 0; Plant response rating, Lambsquarters [8, 17]: 10; Plant response rating, Lambsquarters [8, 18]: 30; Plant response rating, Lambsquarters [8, 19]: 30; Plant response rating, Lambsquarters [8, 20]: 90; Plant response rating, Lambsquarters [8, 21]: 100; Plant response rating, Crabgrass, Large [9, 14]: 100; Plant response rating, Crabgrass, Large [9, 15]: 100; Plant response rating, Crabgrass, Large [9, 16]: 100; Plant response rating, Crabgrass, Large [9, 17]: 100; Plant response rating, Crabgrass, Large [9, 18]: 100; Plant response rating, Crabgrass, Large [9, 19]: 100; Plant response rating, Crabgrass, Large [9, 20]: 100; Plant response rating, Crabgrass, Large [9, 21]: 100; Plant response rating, Soybean [10, 14]: 0; Plant response rating, Soybean [10, 15]: 0; Plant response rating, Soybean [10, 20]: 0; Plant response rating, Soybean [10, 21]: 0; Plant response rating, Surinam Grass [11, 14]: 100; Plant response rating, Surinam Grass [11, 15]: 100; Plant response rating, Surinam Grass [11, 16]: 100; Plant response rating, Surinam Grass [11, 17]: 100; Plant response rating, Surinam Grass [11, 18]: 98; Plant response rating, Surinam Grass [11, 19]: 100; Plant response rating, Surinam Grass [11, 20]: 100; Plant response rating, Surinam Grass [11, 21]: 100; Plant response rating, Wheat [12, 14]: 60; Plant response rating, Wheat [12, 15]: 80; Plant response rating, Wheat [12, 16]: 95; Plant response rating, Wheat [12, 18]: 0; Plant response rating, Wheat [12, 19]: 65; Plant response rating, Wheat [12, 20]: 80; Plant response rating, Wheat [12, 21]: 95; Plant response rating, Ducksalad ([13]; Flood (flooded paddy test), 62 g ai/ha, scale 0 to 100, 0 no effect, 100 complete control): 0; Plant response rating, Ducksalad ([13]; Flood (flooded paddy test), 125 g ai/ha, scale 0 to 100, 0 no effect, 100 complete control): 20; Plant response rating, Ducksalad ([13]; Flood (flooded paddy test), 250 g ai/ha, scale 0 to 100, 0 no effect, 100 complete control): 40; Plant response rating, Ducksalad ([13]; Flood, 31 g ai/ha, scale 0 to 100): 0

— US20100267561A1, “HERBICIDAL PYRIDAZINONE DERIVATIVES” (priority 2007, published 2010)
